Laboratory results reported in patent EP4105218A1, “SUBSTITUTED PYRROLO[2,3-D] PYRIMIDINES, THEIR PREPARATION AND THEIR THERAPEUTIC APPLICATION” (SANOFI, priority 2021, dated 2022).

How the values were obtained:
LRRK2(human) WT = LRRK2(human) WT (Homo sapiens, UniProt Q5S007); experiment: LRRK2 WT assay (assay A), Lanthascreen TR-FRET; format: biochemical; conditions: assay A (values without "*"): full-length LRRK2 wild type, 500uM ATP
LRRK2-G2019S(human) = target: T1, LRRK2-G2019S(human) (Homo sapiens, UniProt Q5S007, G2019S); experiment: LRRK2-G2019S Kinase activity assay (Lanthascreen TR-FRET); format: biochemical; conditions: full-length LRRK2 G2019S, LRRKtide substrate, 1.1mM ATP
T1 construct: DYKDDDDK (FLAG)
Experimental: LRRK2-G2019S Kinase activity assay: The measurements of the activities were made using a LRRK2-G2019S(human) Kinase activity assay as described hereunder. The potency of compounds was evaluated in vitro using the Lanthascreen® technology (ThermoFisher Scientific).
The biological assay requires the […]-tagged full-length LRRK2 G2019S protein, the fluorescent peptide substrate named LRRKtide or ERM ([…] supplied by PolyPeptide Group), the ATP substrate, and different concentrations of test compounds. In a typical experiment, the reaction assay buffer contains 50mM Tris pH8.2, 1mM EGTA, 2.5mM MgCl2, 0.05% Triton X100, 0.15% BSA and 1mM DTT. The detection of the assay is performed using 1nM Terbium labeled anti-phospho-LRRKtide (ThermoFisher Scientific) diluted in a TR-FRET buffer (ThermoFisher Scientific).
The experimental procedure was performed with Greiner small volume® 384-well. The assay is started by a pre-incubation step of full-length LRRK2 G2019S mutant protein with reaction assay buffer and a dilution series of test compound for at least 30 minutes at room temperature. The working solution of compounds was prepared in a separate Greiner microplate.
The kinase reaction was initiated by addition of the ATP/LRRKtide substrate mix diluted in the reaction assay buffer. The reaction mix was incubated for at least 10 minutes at room temperature (initial velocity conditions). Reaction was stopped by addition of Terbium labeled anti-phospho-LRRKtide diluted into the detection buffer supplemented with EDTA (ThermoFisher Scientific). Plates are incubated for at least 30 minutes at room temperature and read on an Envision™ multimode plate reader (PerkinElmer) with LanthaScreen™. The TR-FRET 520:495 nm emission ratio was calculated and used to determine the IC50 value from a dose response curve fit to the 4-parameter logistic equation. The activity with respect to LRRK2 kinase in this test is given by the concentration which inhibits 50% of the LRRK2 activity (or IC50) in nM.

T1 sequence (Q5S007 whole entry G2019S): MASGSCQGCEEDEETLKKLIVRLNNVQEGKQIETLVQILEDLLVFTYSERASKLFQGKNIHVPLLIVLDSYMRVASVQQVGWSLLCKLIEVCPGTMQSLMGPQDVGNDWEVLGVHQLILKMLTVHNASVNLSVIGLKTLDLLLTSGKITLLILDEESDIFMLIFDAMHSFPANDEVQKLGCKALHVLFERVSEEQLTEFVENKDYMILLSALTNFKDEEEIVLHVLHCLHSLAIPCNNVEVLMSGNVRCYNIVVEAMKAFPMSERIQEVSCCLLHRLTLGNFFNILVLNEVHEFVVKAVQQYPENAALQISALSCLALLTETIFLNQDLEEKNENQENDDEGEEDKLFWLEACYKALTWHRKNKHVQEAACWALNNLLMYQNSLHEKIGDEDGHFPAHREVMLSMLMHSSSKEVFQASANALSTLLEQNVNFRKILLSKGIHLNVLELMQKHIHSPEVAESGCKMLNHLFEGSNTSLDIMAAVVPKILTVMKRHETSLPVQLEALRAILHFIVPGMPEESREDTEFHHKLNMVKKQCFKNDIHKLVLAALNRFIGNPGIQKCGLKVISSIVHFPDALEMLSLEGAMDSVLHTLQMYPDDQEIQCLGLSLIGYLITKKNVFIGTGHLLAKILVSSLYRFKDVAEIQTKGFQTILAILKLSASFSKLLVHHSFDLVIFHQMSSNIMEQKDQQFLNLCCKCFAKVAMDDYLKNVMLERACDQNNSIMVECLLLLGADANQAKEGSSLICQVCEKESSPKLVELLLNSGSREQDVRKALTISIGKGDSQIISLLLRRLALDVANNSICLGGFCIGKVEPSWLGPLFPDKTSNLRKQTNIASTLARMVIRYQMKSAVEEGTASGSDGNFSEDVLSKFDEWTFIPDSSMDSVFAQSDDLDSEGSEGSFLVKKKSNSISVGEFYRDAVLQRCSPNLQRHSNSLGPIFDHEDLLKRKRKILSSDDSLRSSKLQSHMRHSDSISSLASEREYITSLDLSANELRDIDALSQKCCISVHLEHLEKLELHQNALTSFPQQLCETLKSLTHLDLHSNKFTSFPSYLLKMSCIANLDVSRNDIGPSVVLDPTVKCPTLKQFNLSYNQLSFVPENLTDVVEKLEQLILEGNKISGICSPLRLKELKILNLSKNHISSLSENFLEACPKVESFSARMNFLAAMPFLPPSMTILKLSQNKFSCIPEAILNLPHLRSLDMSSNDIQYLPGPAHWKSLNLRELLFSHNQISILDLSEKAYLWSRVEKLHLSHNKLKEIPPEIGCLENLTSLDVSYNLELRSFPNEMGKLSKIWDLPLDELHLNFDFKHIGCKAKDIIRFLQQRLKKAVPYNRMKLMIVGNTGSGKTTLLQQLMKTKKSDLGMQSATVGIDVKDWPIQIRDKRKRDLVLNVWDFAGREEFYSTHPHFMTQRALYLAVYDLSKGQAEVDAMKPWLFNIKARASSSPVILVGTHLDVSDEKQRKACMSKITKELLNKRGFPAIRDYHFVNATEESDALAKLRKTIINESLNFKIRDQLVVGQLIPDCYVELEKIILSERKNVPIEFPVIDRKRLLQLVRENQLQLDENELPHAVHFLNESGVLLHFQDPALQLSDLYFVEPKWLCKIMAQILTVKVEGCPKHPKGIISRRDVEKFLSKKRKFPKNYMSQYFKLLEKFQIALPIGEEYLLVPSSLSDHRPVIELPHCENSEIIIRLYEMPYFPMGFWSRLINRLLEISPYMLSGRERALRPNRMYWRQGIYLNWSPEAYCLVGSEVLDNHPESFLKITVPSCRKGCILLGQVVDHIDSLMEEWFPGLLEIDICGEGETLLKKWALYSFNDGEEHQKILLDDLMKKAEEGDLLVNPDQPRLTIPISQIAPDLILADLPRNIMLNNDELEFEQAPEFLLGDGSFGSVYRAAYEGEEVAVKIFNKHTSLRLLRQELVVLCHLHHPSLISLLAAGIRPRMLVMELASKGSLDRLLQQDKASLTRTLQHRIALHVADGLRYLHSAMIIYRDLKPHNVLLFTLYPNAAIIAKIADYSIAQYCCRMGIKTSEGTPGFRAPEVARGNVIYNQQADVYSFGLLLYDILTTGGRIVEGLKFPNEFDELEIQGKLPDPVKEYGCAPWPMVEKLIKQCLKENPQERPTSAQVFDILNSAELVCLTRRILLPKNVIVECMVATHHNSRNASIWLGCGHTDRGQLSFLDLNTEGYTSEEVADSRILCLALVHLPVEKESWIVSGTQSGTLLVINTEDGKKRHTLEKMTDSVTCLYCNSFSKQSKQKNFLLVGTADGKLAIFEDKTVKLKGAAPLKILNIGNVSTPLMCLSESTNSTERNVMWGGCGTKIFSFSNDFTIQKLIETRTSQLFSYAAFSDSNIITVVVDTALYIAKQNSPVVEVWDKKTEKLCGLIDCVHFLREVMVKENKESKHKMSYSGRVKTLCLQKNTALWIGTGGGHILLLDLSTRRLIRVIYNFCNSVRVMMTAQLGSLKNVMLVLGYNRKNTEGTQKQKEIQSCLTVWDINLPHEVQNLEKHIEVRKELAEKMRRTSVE
LRRK2(human) WT, sequence (Q5S007 whole entry): as the sequence (Q5S007 whole entry G2019S) above, with S2019G counted along it

Structure (SMILES) | IC50 (LRRK2(human) WT) [nM] | IC50 (LRRK2-G2019S(human)) [nM]
CC(=O)N1CC(Oc2nn(C)cc2Nc2ncc3cc(C#N)n([C@H]4COC[C@@H]4C)c3n2)C1(C)C (single isomer, unassigned) [Example 17] | 3 | 3
CC(=O)N1CC(Oc2nn(C)cc2Nc2ncc3cc(C#N)n([C@H]4COC[C@@H]4C)c3n2)C1(C)C (single isomer, unassigned) [Example 18] | 2 | 2
COCC(C)n1c(C#N)cc2cnc(Nc3cn(C)nc3OC3COC3C)nc21 (single isomer, unassigned) [Example 87, 7-[(1S)-2-methoxy-1-methyl-ethyl]-2-[[1-methyl-3-[(2S, 3R)-2-methyloxetan-3-yl]oxy-pyrazol-4-yl]amino]pyrrolo[2,3-d]pyrimidine-6-carbonitrile or 7-[(1S)-2-methoxy-1-methyl-ethyl]-2-[[1-methyl-3-[(2R, 3S)-2-methyloxetan-3-yl]oxy-pyrazol-4-yl]amino]pyrrolo[2,3-d]pyrimidine-6-carbonitrile] | – | 5
[2H]C([2H])([2H])n1cc(Nc2ncc3cc(C#N)n(C(C)COC)c3n2)c(OC2COC2C)n1 (single isomer, unassigned) [Example 89, 7-[(1S)-2-methoxy-1-methyl-ethyl]-2-[[3-[(2S,3R)-2-methyloxetan-3-yl]oxy-1-(methyl-d3)pyrazol-4-yl]amino]pyrrolo[2,3-d]pyrimidine-6-carbonitrile or 7-[(1S)-2-methoxy-1-methyl-ethyl]-2-[[3-[(2R,3S)-2-methyloxetan-3-yl]oxy-1-(methyl-d3)pyrazol-4-yl]amino]pyrrolo[2,3-d]pyrimidine-6-carbonitrile] | – | 5
